The inhibition is the change of the read-out against control, counted positive when it falls. Lower therefore signals a weak effect.

In one test the test system is MDCK cells. As to the kind of experiment: HGF-induced epithelial-mesenchymal transition / migration of MDCK cells on transwell filters (crystal violet densitometry). Format: cell-based. The following applies: Canis lupus familiaris, MDCK; test compound 10 μM, then HGF, 24 hours; percentage value like the untreated controls (unstimulated cells = maximal effect, HGF treated cells without compound = nil effect). How it is done: MDCK cells were seeded at confluency into the wells of a transwell filter in DMEM with 10% fetal bovine serum. Cells were cultured for 24 hours. Test compounds, dissolved in DMSO, were added to each test well to a 10 μM final concentration, and then hepatocyte growth factor (HGF) was then added. The MDCK cells were cultured for 24 hours. Concurrently, controls treated with and without HGF and with no test compounds were also prepared.
After post-HGF addition culturing, transwell filters were prepared by repeated washing using ice cold PBS. The cells were then fixed with paraformaldehyde (3.7%) on ice for 15 minutes to the filters. After fixation, the transwell filters were washed repeatedly with PBS followed by staining with crystal violet for 15 minutes. The transwell filters were washed again with distilled water.
The upper surface of the transwell filters were swabbed using a cotton-tipped probe. The filters were photographed using a gel documentation system. Densitometry measurements were made on the test samples and compared with control samples.
Molecule `C=CCc1ccccc1OCC(=O)N/N=C/c1ccc(C)cc1C` [Compound 1] had an inhibition at 10 µM of 97%.

For the molecule `C=CCc1ccccc1OCC(=O)N/N=C/c1ccc(Cl)cc1` [Compound 2], the inhibition at 10 µM stood at 67.3%. Same read-out and setting: then `C=CCc1ccccc1OCC(=O)N/N=C/c1cccc(Oc2ccccc2)c1` [Compound 3], with 70.9%; and `CCOc1ccccc1OCC(=O)N/N=C/c1ccc(O)cc1O` [Compound 4], with 32.3%; and `N#Cc1ccccc1OCC(=O)N/N=C/c1ccccc1O` [Compound 5], with 41.1%. On the same count and under the same terms, as for `N#Cc1ccccc1OCC(=O)N/N=C/c1ccccc1` [Compound 6], the figure is 44.2%; as for `N#Cc1ccccc1OCC(=O)N/N=C/c1ccc(Cl)cc1` [Compound 7], 86.8%. `N#Cc1ccccc1OCC(=O)N/N=C/c1ccc(Cl)cc1Cl` [Compound 8] registered an inhibition at 10 µM of 55.1%. On the same count and under the same terms, then `C=CCOc1ccccc1/C=N/NC(=O)COc1ccccc1CC=C` [Compound 9], with 49.5%.

With `C=CCc1ccccc1OCC(=O)N/N=C/c1cccc(CC=C)c1O` [Compound 10], the inhibition at 10 µM turned out to be 44.8%. On the same count and under the same terms, then `N#Cc1ccccc1OCC(=O)N/N=C/c1ccc([N+](=O)[O-])cc1` [Compound 11], with 83.7%; and `N#Cc1ccccc1OCC(=O)N/N=C/c1cccc(Br)c1` [Compound 12], with 67.7%; and `N#Cc1ccccc1OCC(=O)N/N=C/c1c(Cl)cccc1Cl` [Compound 13], with 86%. In the case of `CCc1ccccc1OCC(=O)N/N=C/c1ccc(Br)cc1` [Compound 14], 10 µM produced 100% inhibition.

`CCOc1ccccc1OCC(=O)N/N=C/c1ccc(O)c(O)c1` [Compound 15]: 10 µM produced 72.8% inhibition. Same read-out and setting: as for `O=c1[nH]c(CCc2ccccc2)nc2sc3c(c12)CCCC3` [Compound A-1], the figure is 96.9%.

In turn, `O=c1[nH]c(NCc2ccccc2)nc2sc3c(c12)CCCC3` [Compound A-2] yielded an inhibition at 10 µM of 92.2%.

For `O=C1c2cccc3cccc(c23)C(=O)N1CCc1nc2sc3c(c2c(=O)[nH]1)CCCC3` [Compound A-3], 10 µM produced 73.4% inhibition. On the same count and under the same terms, as for `O=c1[nH]c(/C=C/c2ccccc2)nc2sc3c(c12)CCCC3` [Compound A-4], the figure is 90.8%; as for `O=c1[nH]c(SCc2ccccc2)nc2sc3c(c12)CCc1ccccc1-3` [Compound A-5], 77.3%. Take `Cc1noc(C)c1CSc1nc2sc3c(c2c(=O)n1-c1ccccc1)CCCC3` [Compound A-7]: testing at 10 µM gave an inhibition of 31.3%. Same read-out and setting: as for `Cc1nc(CSc2nc3[nH]ncc3c(=O)n2-c2ccccc2)cs1` [Compound A-8], the figure is 49.6%; as for `O=C(CSc1nc2sc3c(c2c(=O)n1Cc1ccccc1)CCCC3)N1CCCC1` [Compound A-9], 50%; as for `Cc1noc(C)c1CSc1nc2[nH]ncc2c(=O)n1-c1ccccc1` [Compound A-10], 63.1%. As for `O=C(O)CCc1nc2sc3c(c2c(=O)[nH]1)CCCC3` [Compound A-12], the inhibition at 10 µM worked out at 100%. On the same count and under the same terms, as for `O=c1[nH]c(SC/C=C/c2ccccc2)nc2sc3c(c12)CCCC3` [Compound A-13], the figure is 90.5%; as for `C=C(C)CSc1nc2sc3c(c2c(=O)[nH]1)CCCC3` [Compound A-14], 100%; as for `CCOC(=O)/C=C/CSc1nc2sc3c(c2c(=O)[nH]1)CCCC3` [Compound A-15], 71.3%. Same read-out and setting: then `O=C1c2cccc3cccc(c23)C(=O)N1CCCc1nc2sc3c(c2c(=O)[nH]1)CCCC3` [Compound A-16], with 70.1%; and `COc1cc(/C=C/c2ccc3cccc(OC)c3n2)cc(OC)c1OC` [Compound B-1], with 96.8%. Same read-out and setting: then `CCOc1cc(/C=C/c2ccc3cccc(O)c3n2)ccc1OC` [Compound B-2], with > 5%; and `COc1cc(/C=C/c2ccc3cccc(O)c3n2)ccc1O` [Compound B-3], with > 5%; and `CCOc1ccc(/C=C/c2ccc3cccc(OC)c3n2)cc1OC` [Compound B-5], with > 5%. For the molecule `COc1ccc(/C=C/c2ccc3cccc(OC)c3n2)cc1Cl` [Compound B-6], the inhibition at 10 µM was > 5%. In the case of `COc1cc(/C=C/c2ccc3cccc(OC)c3n2)ccc1OC(C)=O` [Compound B-7], the inhibition at 10 µM was > 5%.

Regarding `Oc1cccc2ccc(/C=C/c3ccc(Cl)c(Cl)c3)nc12` [Compound B-8], the inhibition at 10 µM was > 5%. As for `COc1cc(/C=C/c2ccc3cccc(OC)c3n2)cc(Br)c1OC` [Compound B-9], the inhibition at 10 µM was > 5%.

`CCOc1cccc(/C=C/c2ccc3cccc(OC)c3n2)c1` [Compound B-10] came in with an inhibition at 10 µM of 76.1%.

`COc1cccc2ccc(/C=C/c3ccc(Br)cc3)nc12` [Compound B-11]: the inhibition at 10 µM came out at 61.4%. Same read-out and setting: then `COc1cc(OC)c(OC)cc1/C=C/c1ccc2cccc(OC)c2n1` [Compound B-12], with 50.6%; and `CCOc1cc(/C=C/c2ccc3cccc(OC(=O)CC)c3n2)cc(Br)c1OC` [Compound B-13], with 62.2%. The same measure, in the same setting: then `COc1c(OC(C)=O)ccc(/C=C/c2ccc3cccc(OC)c3n2)c1[N+](=O)[O-]` [Compound B-14], with 61.1%. Same read-out and setting: as for `CCOc1cccc(/C=C/c2ccc3cccc(OC)c3n2)c1OC(C)=O` [Compound B-15], the figure is 53.1%. With `COc1cc(/C=C/c2ccc3cccc(OCc4ccccc4Cl)c3n2)cc(OC)c1OC` [Compound B-17], the inhibition at 10 µM came to 100%. On the same count and under the same terms, then `COc1cc(/C=C/c2ccc3cccc(OCc4ccccc4)c3n2)ccc1OC(C)=O` [Compound B-18], with 100%.

The test is the same for the next values; noted with them: test compound 10 μM, then HGF, 24 hours; percentage value like the untreated controls (unstimulated cells = maximal effect, HGF treated cells without compound = nil effect).
Turning to `Cc1cccc(OCC(=O)N/N=C/c2cccc(I)c2)c1` [Compound 16], the “Assay Value” is reported as <5%. Still for that read-out and setting: then `Cc1cc(C)c(OCC(=O)N/N=C/c2ccccc2)c(C)c1` [Compound 17], with <5%; and `COc1ccccc1/C=N/NC(=O)COc1c(C)cc(C)cc1C` [Compound 18], with <5%; and `COc1ccc(/C=N/NC(=O)COc2ccccc2C)cc1` [Compound 19], with <5%.

Take `Cc1ccc(OCC(=O)N/N=C/c2ccccc2)cc1` [Compound 20]: the “Assay Value” is <5%. On the same count and under the same terms, as for `Cc1cc(C)c(/C=N/NC(=O)COc2ccccc2)c(C)c1` [Compound 21], the figure is <5%; as for `Cc1ccc(OCC(=O)N/N=C/c2ccc(C(=O)O)cc2)c(C)c1` [Compound 22], <5%; as for `Cc1cccc(OCC(=O)N/N=C/c2ccc(O)cc2)c1C` [Compound 23], <5%.

As for `COc1cccc(/C=N/NC(=O)COc2cc(C)ccc2C(C)C)c1` [Compound 24], the “Assay Value” is recorded as <5%. Still for that read-out and setting: as for `Cc1ccc(C)c(OCC(=O)N/N=C/c2ccc(CC(=O)O)cc2)c1C` [Compound 25], the figure is <5%; as for `Cc1ccccc1OCC(=O)N/N=C/c1ccc(F)cc1` [Compound 26], <5%.

Consider `O=C(COc1ccccc1Br)N/N=C/c1cccc(Br)c1` [Compound 28], for which the “Assay Value” is listed as <5%. Same read-out and setting: then `O=C(COc1ccc2ccccc2c1)N/N=C/c1ccccc1Br` [Compound 30], with <5%. The same measure, in the same setting: then `O=C(COc1ccc2ccccc2c1)N/N=C/c1ccccc1` [Compound 31], with <5%; and `COc1ccccc1/C=N/NC(=O)COc1ccccc1OC` [Compound 32], with <5%; and `COc1ccccc1OCC(=O)N/N=C/c1ccc(Cl)cc1` [Compound 33], with <5%. The same measure, in the same setting: then `Cc1ccc(/C=N/NC(=O)COc2ccccc2Br)c(C)c1` [Compound 34], with <5%; and `O=C(COc1cccc(Br)c1)N/N=C/c1ccc(Cl)cc1` [Compound 35], with <5%; and `Cc1ccc(/C=N/NC(=O)COc2cccc(Br)c2)c(C)c1` [Compound 36], with <5%.

On to `O=C(COc1ccccc1Br)N/N=C/c1ccccc1Br` [Compound 37], for which the “Assay Value” is listed as <5%. Same read-out and setting: then `O=C(COc1ccc(Br)cc1)N/N=C/c1ccc(Cl)cc1` [Compound 38], with <5%; and `Cc1noc(C)c1CSc1nc2sc3c(c2c(=O)n1-c1ccccc1)CCC3` [Compound A-6], with 55.1%.

With `O=C(CSc1nc2sc3c(c2c(=O)n1-c1ccccc1)CCCC3)c1cccs1` [Compound A-17], the “Assay Value” is reported as <5%.

Regarding `CC1CCc2c(sc3nc(Cc4ccccc4)[nH]c(=O)c23)C1` (stereo not drawn) [Compound A-18], the “Assay Value” is listed as <5%. `CC1CCc2c(sc3nc(SCC(=O)N4CCOCC4)n(Cc4ccccc4)c(=O)c23)C1` (stereo not drawn) [Compound A-20]: the “Assay Value” is given as <5%.

Take `O=C(CSc1nc2sc3c(c2c(=O)n1Cc1ccccc1)CCCC3)N1CCCC1` [Compound A-21]: the “Assay Value” is reported as <5%.

For `CC1CCCCN1C(=O)CSc1nc2sc3c(c2c(=O)n1-c1ccccc1)CCC3` (stereo not drawn) [Compound A-22], the “Assay Value” is reported as <5%.

With `CC1CCN(C(=O)CSc2nc3sc4c(c3c(=O)[nH]2)CCCC4)CC1` [Compound A-25], the “Assay Value” is <5%.

Regarding `Oc1cccc2ccc(/C=C/c3ccc(OC4CCCC4)cc3)nc12` [Compound B-16], the “Assay Value” was 100%. The same measure, in the same setting: then `Oc1cccc2ccc(/C=C/c3ccc(OCc4ccccc4)cc3)nc12` [Compound B-19], with 91.0%.

Source of the values: patent publication US8481553B2, “Antimetastatic compounds” (Brigham Young University, priority 2010, dated 2013).
